Assays:
SMAD3 [1] = target: T1, SMAD3 (Homo sapiens, UniProt P84022); test: Blockade of Smad3 in NK-92 cells under TGF-β1: E4BP4 and IFN-γ levels; type: cell-based; details: high TGF-β1 (5 ng/ml), SIS3 5 μM
T1 construct: NK-92 cells were pretreated with SIS3 at various concentrations for 2 hours; endogenous in cells; host or cells: NK-92 (human NK cell line)
Procedure: To reveal the regulatory role of SMAD3 and E4BP4 in the production of IFN-γ in NK-92 cells, a specific inhibitor of SMAD3 known as SIS3 (Sigma) was used in this study. Briefly, NK-92 cells were pretreated with SIS3 at various concentrations for 2 hours. The cells were then treated with TGF-β1 at the final concentration of 5 ng/ml for 45 min and harvested for detection of the phosphorylation level of SMAD3 with western blot. The dosage of SIS3 that induced the maximum effect of phosphorylation inhibition of SMAD3 was determined as the optimal dosage of SIS3 used in further experiment. NK-92 cells were then pretreated with or without SIS3 at the determined concentration for 2 hours followed by stimulation with TGF-β1 at the final concentration of 5 ng/ml for 12 hours. The cells were harvested to detect the level of E4BP4 and IFN-γ.

SMAD3 [2] = test: SMAD3 knockdown in NK-92 cells, real-time PCR and western blot; type: cell-based, human
Procedure: NK-92 cells were transduced with rLV-hSMAD3 and selected with puromycin (InvivoGen). Briefly, NK-92 cells were seeded in a 24-well plate at a density of 1×10^6/ml and mixed with ploybrene (Santa Cruz) at final concentration of 5 ug/ml and rLV-hSmad3 at MOI (multiplicity of infection) equal to 50 overnight at 37° C. The transduced cells were then expanded in complete medium and selected with puromycin at a final concentration of 2 ug/ml. The expression level of SMAD3 in the puromycin resistant clone was determined by real-time PCR with corresponding primers (Table 2) and Western blot analysis with rabbit anti human SMAD3 antibody (Abcam) respectively.
Total RNA from cells was isolated using the PureLink™ RNA Mini kit (Life Technologies) according to the manufacturer's instruction. The reverse transcription reaction was conducted with C1000 thermal cycler. The cDNA was then diluted with 40 ul RNase-free water and used as the template in real-time polymerase chain reaction.

T1 sequence (P84022 whole entry): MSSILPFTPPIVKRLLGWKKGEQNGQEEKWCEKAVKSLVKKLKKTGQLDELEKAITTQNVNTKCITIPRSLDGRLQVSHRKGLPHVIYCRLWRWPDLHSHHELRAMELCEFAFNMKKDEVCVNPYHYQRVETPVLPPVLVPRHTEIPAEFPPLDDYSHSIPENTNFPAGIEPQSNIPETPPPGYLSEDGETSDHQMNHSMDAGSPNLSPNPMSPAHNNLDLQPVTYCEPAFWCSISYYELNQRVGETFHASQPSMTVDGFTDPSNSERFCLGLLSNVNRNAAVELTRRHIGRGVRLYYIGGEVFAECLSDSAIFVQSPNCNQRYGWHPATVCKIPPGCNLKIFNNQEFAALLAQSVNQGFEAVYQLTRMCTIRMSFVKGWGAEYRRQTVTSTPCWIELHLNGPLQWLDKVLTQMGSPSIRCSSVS

COc1cc2c(cc1OC)CN(C(=O)/C=C/c1c(-c3ccccc3)n(C)c3ncccc13)CC2 [SIS3]
expressions of E4BP4 mRNA and protein (SMAD3 [1]): markedly increase
production of IFN-γ (SMAD3 [1]): markedly increase

shRNA-hSmad3: shRNA specifically against human SMAD3 mRNA, sequence GGAGAAATGGTGCGAGAAG (Table 3), delivered by lentivirus (shRNA hairpin; lentiviral delivery)
mRNA expression of SMAD3 (SMAD3 [2]; real-time PCR): largely down-regulated
decrease in SMAD3 protein (SMAD3 [2]; western blot): more than 70%

Source: patent publication US20180221463A1, “Modified NK Cells and Uses Thereof” (priority 2017, published 2018)
